The values that follow are results of earlier work, collected in patent publication US11602509B2, “Salt of cysteamine for the preparation of highly respirable particles” (RECORDATI INDUSTRIA CHIMICA E FARMACEUTICA SPA, priority 2018, dated 2023).

In general, pKa refers to the negative logarithm of the acid dissociation constant.

Regarding `NCCS` [cysteamine free base, cysteamine], the pKa was 9.42.
